Tested on: melanoma
Assay: Immunotherapy response of melanoma patients by standard clinical imaging criteria (CT scan change), tumors classed by HSATII RNA-ISH
Format: in vivo, human
Experimental: All combined RNA-ISH and IHC assays are performed as follows: Monoclonal antibodies for immune cells (T-cell subsets CD3, CD4, CD8, FOXP3; Macrophages CD68, CD163; B-cells CD20; NK cells CD16, CD56) and RNA ISH probes for repeat RNAs (HSATII, HERV-K, HERV-H, LINE1) were sequentially applied on a single histologic slide, and contrasting chromogens were used to visualize the antibody: brown (diaminobenzidine [DAB]) for immune marker and RNA: red (fast red) for repeat RNA. Paraffin-embedded sections were mounted on coated slides and were placed in an oven for 60 minutes at 60° C. The sequential double-staining protocol was performed using the Leica Bond Rx automated immunostainer. […]
As shown herein, HSATII low melanomas respond to immunotherapy including anti-PD1/PDL1 and anti-CTLA4 therapies (FIG. 5). Briefly, a cohort of 20 melanoma patients who received either anti-PD1/PDL1 or anti-CTLA4 therapy that had formalin fixed paraffin embedded (FFPE) tissue were evaluated with HSATII RNA-ISH combined with CD3 T cell IHC assay. Tumors were evaluated for HSATII RNA levels (HIGH vs LOW) and CD3 T cell infiltrates quantitated by manual counting of cells in a 400×200 micron area by a pathologist. […] Tumors were evaluated for HSATII RNA levels (HIGH vs LOW) and CD163 macrophage infiltrates quantitated by manual counting of cells in a 400×200 micron area by a pathologist.

Row | Substance | immunotherapy response as determined by standard clinical imaging criteria (CT scan change) (HSATII LOW tumors (high CD3 T-cells)) | immunotherapy response as determined by standard clinical imaging criteria (CT scan change) (HSATII HIGH tumors (low CD3 T-cells))
1 | ipilimumab | responder | 
2 | nivolumab |  | non-responder

From patent US20210213041A1, “REPEAT RNA AS BIOMARKERS OF TUMOR IMMUNE RESPONSE” (The General Hospital Corporation, priority 2018, published 2021)
